Where two headings read alike, the source gives them in different places.
Experiments:
[1] = system: leucémie P 388; test: animal or person; format: in vivo, souris hybrides CDF 1; settings: for Nombre de survivants: survivors at J 40; for Variation pondérale en g: in vivo, ip
Source text: (§1) L'activité antitumorale a été testée in vivo sur différentes tumeurs selon le protocole général suivant:
(§2) Toutes les souris mâles ou femelles sont inoculées par voie intrapéritonéale au jour Jo avec une quantité déterminée de cellules tumorales viables, variable selon la tumeur.
(§3) Elles sont ensuite réparties en différents lots. Chaque lot correspondant aux animaux traités par le produit à tester à une dose déterminée est composé de 10 souris. Dans ce cas, le produit à tester est dissous dans l'eau distillée et il est administré, pendant n jours (J₁-Jn) variables selon le protocole choisi, par voie intrapéritonéale à raison de 0,1 ml par 10 g de poids des souris traitées, les doses du produit administré étant précisées dans les tableaux ci-dessous.
(§4) Le lot "contrôle négatif", correspondant aux animaux qui ne sont pas traités par un produit, comprend 2 √N animaux, N étant égal au nombre total de souris traitées par un produit.
(§5) Enfin, tous les essais sont conduits parallèlement à l'étude d'un lot appelé "contrôle positif" de 10 animaux qui est traité par une molécule active, variable selon le protocole choisi, dans les mêmes conditions que les lots traités par le produit à tester, afin de valider l'essai.
(§6) L'activité antitumorale est évaluée en considé-rant l'augmentation du temps de survie des animaux traités par rapport à celui des animaux du lot "contrôle négatif" selon la formule : [formula]
(§7) Un composé est considéré comme étant actif lorsque la valeur du rapport T/C est égale ou supérieure à 125 % selon le protocole retenu. Il est toxique lorsque cette valeur est égale ou inférieure à 85 %. Le produit est également considéré comme toxique lorsque la variation pondérale, exprimée en grammes et calculée par la formule : Poids moyen du lot mesuré au jour 5 -poids moyen du même lot au jour 1 est égale ou inférieure à - 4 g.
a) Test de la leucémie P 388 (GERAN et al., Cancer Chemother, 1972, 2, 07-57).
Les essais sont effectués avec des souris hybrides CDF 1 inoculées par voie intrapéritonéale avec 10⁶ cellules leucémiques de la lignée P 388. Le composé à tester est administré pendant 5 jours (J1-J5). Le contrôle positif du test est le 5-fluorouracile qui est administré dans les mêmes conditions. Le nombre d'animaux survivants est évalué au jour J 40. Un composé est considéré comme étant actif lorsque le rapport T/C est supérieur à 127 %.

[2] = system: leucémie L 1210; test: In vivo antitumour activity, L 1210 leukemia test; parameters: species or system souris hybrides CDF₁; settings: for Nombre de survivants: survivors at J 30
Source text: as §1, §2, §3, §4, §5, §6, §7
b) Test de la leucémie L 1210 (GERAN et al., Cancer Chemother, 1972, 2, 07-57).
Les essais sont effectués avec des souris hybrides CDF₁ inoculées avec 10⁵ cellules leucémiques de la lignée L 1210. Le composé à tester est administré pendant 5 jours (J₁-J₅).Le contrôle positif du test est le 5-fluorouracile administré dans les mêmes conditions. Le nombre d'animaux survivants est évalué au jour J 30. Un composé est considéré comme étant actif lorsque le rapport T/C est supérieur ou égal à 125 %.

[3] = system: mélanome B 16; test: In vivo antitumour activity, B 16 melanoma test; parameters: species or system souris hybrides BDF₁; settings: for Jour médian de survie / T/C % / Nombre de survivants: B 16 melanoma; for Nombre de survivants: survivors at J 60; for Variation pondérale en g: in vivo, ip
Source text: as §1, §2, §3, §4, §5, §6
Le produit est également considéré comme toxique lorsque la variation pondérale, exprimée en grammes et calculée par la formule : Poids moyen du lot mesuré au jour 5 -poids moyen du même lot au jour 1 est égale ou inférieure à - 4 g.
Les essais sont effectués avec des souris hybrides BDF₁ inoculées avec 0,5 ml d'un homogénat de mélanome B 16 réalisé à partir de 1 g de tumeur dans 10 ml de sérum physiologique. Le composé à tester est administré pendant 9 jours (J₁-J₉).Le contrôle positif du test est le Cis-Platine administré dans les mêmes conditions. Le nombre d'animaux survivants est évalué au jour J 60.

[4] = system: souris consanguines DBA₂ saines; test: Acute toxicity, single intraperitoneal injection in healthy mice, mortality at day 7; format: in vivo; settings: single i.p. injection, 50 mg/kg
[5] = system: lignée tumorale leucémie L 1210; test: In vitro cytotoxic activity on L 1210 leukemia cell culture (inhibition of cell proliferation); format: cell-based; settings: L 1210 culture in exponential growth, 37°C, after 48 hours of contact, read-out: ID 50 (the source's name)
Procedure: 1) In vitro : (PAOLETTI et al., Chem. Biol. Interaction, 1979, 25, 45-58).
L'activité cytotoxique des composés de l'invention a été évaluée par des essais in vitro. Ces essais consistent à ajouter des concentrations croissantes du composé à tester à une culture cellulaire de la lignée tumorale leucémie L 1210 en phase exponentielle de croissance. Les cellules sont incubées à 37°C dans une étuve à CO₂ et comptées toutes les 24 heures. Le calcul de l'ID₅₀ (concentration du produit exprimée en micromole 1⁻¹ qui inhibe la prolifération cellulaire à 50 p. 100) est effectuée après 48 heures de contact. Ainsi déterminées les ID₅₀ des composés de l'invention sont rassemblées dans le tableau ci-après.

[6] = Mus musculus, P388, ip, P 388, CDF 1 mice, 5 mg/kg i.p. J1-J5, read-out: T/C %
[7] = P 388, CDF 1 mice, 5 mg/kg i.p. J1-J5
[8] = L 1210, CDF₁ mice, 5 mg/kg i.p. J1-J5
[9] = L 1210, CDF₁ mice, 10 mg/kg i.p. J1-J5
[10] = BDF₁ mice, 2,5 mg/kg i.p. J1-J9
[11] = L 1210, CDF₁ mice, 20 mg/kg i.p. J1-J5
[12] = L 1210, CDF₁ mice, 30 mg/kg i.p. J1-J5
[13] = L 1210, CDF₁ mice, 1,25 mg/kg i.p. J1-J5
[14] = L 1210, CDF₁ mice, 2,5 mg/kg i.p. J1-J5
[15] = L 1210, CDF₁ mice, 7,5 mg/kg i.p. J1-J5
[16] = BDF₁ mice, 0,625 mg/kg i.p. J1-J9
[17] = BDF₁ mice, 1,25 mg/kg i.p. J1-J9
[18] = P 388, CDF 1 mice, 2,5 mg/kg i.p. J1-J5

## CCN(CC)CCCNc1nc2ccccc2c2c1c1cc(O)ccc1n2C [Dérivé N°3]
[1]; [6]
  response vs control in vivo at 5 mg/kg: 155%
[1]; Mus musculus, P388, ip, P 388, CDF 1 mice, 10 mg/kg i.p. J1-J5, read-out: T/C %
  response vs control in vivo at 10 mg/kg: 147%
[1]; Mus musculus, P388, ip, P 388, CDF 1 mice, 20 mg/kg i.p. J1-J5, read-out: T/C %
  response vs control in vivo at 20 mg/kg: 149%
[1]; [7]
  Nombre de survivants: 0
[1]; P 388, CDF 1 mice, 10 mg/kg i.p. J1-J5
  Nombre de survivants: 0
[1]; P 388, CDF 1 mice, 20 mg/kg i.p. J1-J5
  Nombre de survivants: 0
[1]; 5 mg/kg
  Variation pondérale en g: + 1,0 g
[1]; 10 mg/kg
  Variation pondérale en g: - 0,6 g
[1]; 20 mg/kg
  Variation pondérale en g: - 2,2 g
[2]; [8]
  Jour médian de survie: 10,6
  T/C %: 129%
  Nombre de survivants: 0
[2]; [9]
  Jour médian de survie: 11,3
  T/C %: 138%
  Nombre de survivants: 0
[3]; [10]
  Jour médian de survie: 36
  T/C %: 138%
  Nombre de survivants: 0
[4]
  mortalité évaluée au septième jour après l'administration: aucune mortalité
[5]; Mus musculus, L1210
  IC50: 60 nM

## CCN(CC)CCCNc1nc2ccccc2c2[nH]c3ccc(O)cc3c12 [Dérivé N°11, (diéthylamino-3 propylamino)-6 hydroxy-8 11-H indolo[3,2-c]quinoléine]
[1]; [6]
  response vs control in vivo at 5 mg/kg: 154%
[1]; Mus musculus, P388, ip, P 388, CDF 1 mice, 1,25 mg/kg i.p. J1-J5, read-out: T/C %
  response vs control in vivo at 1.25 mg/kg: 142%
[1]; Mus musculus, P388, ip, P 388, CDF 1 mice, 2,5 mg/kg i.p. J1-J5, read-out: T/C %
  response vs control in vivo at 2.5 mg/kg: 152%
[1]; Mus musculus, P388, ip, P 388, CDF 1 mice, 15,0 mg/kg i.p. J1-J5, read-out: T/C %
  response vs control in vivo at 15 mg/kg: 146%
[1]; 5 mg/kg
  Variation pondérale en g: + 0,6 g
[2]; [8]
  Jour médian de survie: 14,25
  T/C %: 160%
  Nombre de survivants: 0
[2]; [9]
  Jour médian de survie: 12,25
  T/C %: 138%
  Nombre de survivants: 0
[2]; [11]
  Jour médian de survie: 11,7
  T/C %: 131%
  Nombre de survivants: 0
[2]; [12]
  Jour médian de survie: 8,3
  T/C %: 93%
  Nombre de survivants: 0
[2]; [13]
  Jour médian de survie: 10,9
  T/C %: 122%
  Nombre de survivants: 0
[2]; [14]
  Jour médian de survie: 12,75
  T/C %: 143%
  Nombre de survivants: 0
[2]; [15]
  Jour médian de survie: 12,3
  T/C %: 138%
  Nombre de survivants: 0
[3]; BDF₁ mice, 5 mg/kg i.p. J1-J9
  Jour médian de survie: 31
  T/C %: 132%
  Nombre de survivants: 0
[3]; [16]
  Jour médian de survie: 29
  T/C %: 123%
  Nombre de survivants: 0
[3]; [17]
  Jour médian de survie: 40
  T/C %: 170%
  Nombre de survivants: 1
[3]; [10]
  Jour médian de survie: 38
  T/C %: 162%
  Nombre de survivants: 2
[4]
  mortalité évaluée au septième jour après l'administration: aucune mortalité
[5]; Mus musculus, L1210
  IC50: 130 nM

## (éthylamino-3 propylamino)-6 hydroxy-8 11-H indolo[3,2-c]quinoléine [Dérivé N°14]
[1]; [7]
  Jour médian de survie: 14,0
  T/C %: 127%
  Nombre de survivants: 0
[1]; [18]
  Jour médian de survie: 14,0
  T/C %: 127%
  Nombre de survivants: 0
[1]; 5 mg/kg
  Variation pondérale en g: + 1,7 g
[3]; BDF₁ mice, 5 mg/kg i.p. J1-J9
  Jour médian de survie: 34,25
  T/C %: 123%
[3]; BDF₁ mice, 20 mg/kg i.p. J1-J9
  Jour médian de survie: 38,75
  T/C %: 139%
  Nombre de survivants: 0
[3]; 5 mg/kg
  Variation pondérale en g: - 0,2 g
[3]; 20 mg/kg
  Variation pondérale en g: - 1,3 g
[4]
  mortalité évaluée au septième jour après l'administration: aucune mortalité
[5]
  IC50: 1400 nM
